In test [1] the test system is maize endosperm AGPase, heat stable ISM mutants. In words: Apparent kinetic constants with 3-PGA, 37° C., ISM mutants collectively. In kind it is biochemical, Zea mays. On the procedure:
(§1) An endpoint assay was used to determine the rate of the AGPase reaction by coupling the formation of PPi to a decrease in NADH concentration (Boehlein et al., 2008). […] The Michaelis constants (Km) were obtained by varying one substrate in the presence of saturating concentrations of the second substrate. The activation constants were obtained by varying the activator at fixed levels of both substrates. All reactions were performed at 37° C. and mixes were prewarmed before starting the reaction with enzyme. Reactions were terminated by boiling the reaction mixes for 2 minutes followed by development with 200 μl of coupling reagent (25 mM imidazole pH 7.4, 4 mM MgCl2, 1 mM EDTA, 0.2 mM NADH, 0.725 U aldolase, 0.4 U triose phosphate isomerase, 0.6 U glycerophosphate dehydrogenase, 1 mM fructose 6-phosphate and 0.8 μg purified PPi-PFK per reaction). The absorbance at 340 nm was monitored after 30 min and the amount of PPi produced was determined from a standard curve using PPi in complete reaction mixtures lacking AGPase. Blank samples contained complete reaction mixtures without enzyme and the change in absorbance between the blank and the reaction was used to calculate the amount of PPi produced. Reactions were linear with time and enzyme concentration.
The apparent Michaelis constant and maximum velocity of each reaction was calculated from a V vs. S plots using nonlinear regression analysis and the following equation, v=VmaxS/(Km+S), where v is the measured velocity, Vmax is the maximum velocity, S is the substrate concentration. The activation constant (Ka) was obtained using the following equation: V=Vmin+Vmax*(X)/(Ka+X), where Vmin is the velocity in the absence of activator and Vmax is the change in activity from Vmin to the total velocity. X is the activator concentration, Ka is the activation constant. All linear regression was carried out using the software program Prism (Graph Pad, San Diego Calif.).
Each mutant, comprising 1, 2, 3 or 4 changes, was grown in a large scale culture, expressed and purified according to standard procedures (Boehlein et al., 2005). […] Thus, the effects of these mutations on the kinetic constants are minimal. Next, the activation constant, Ka, was determined for each of the mutant enzymes. Here a decrease in the Ka for each of the mutants of approximately 3-6 fold was observed. This property appears to stem from the D161G change, and includes all enzymes which carry this mutation (Table 8). To be certain the effect is the result of the D161G mutation, and not the result of other single mutant changes, Q96R and Q96G were purified and characterized.

Test [2] has as its target T1, maize endosperm AGPase variant T142F (Zea mays, UniProt P55241+Q84PF5, T142F).
T1 construct: data of Boehlein et al., 2013
T1 sequence (P55241 46-516 T142F): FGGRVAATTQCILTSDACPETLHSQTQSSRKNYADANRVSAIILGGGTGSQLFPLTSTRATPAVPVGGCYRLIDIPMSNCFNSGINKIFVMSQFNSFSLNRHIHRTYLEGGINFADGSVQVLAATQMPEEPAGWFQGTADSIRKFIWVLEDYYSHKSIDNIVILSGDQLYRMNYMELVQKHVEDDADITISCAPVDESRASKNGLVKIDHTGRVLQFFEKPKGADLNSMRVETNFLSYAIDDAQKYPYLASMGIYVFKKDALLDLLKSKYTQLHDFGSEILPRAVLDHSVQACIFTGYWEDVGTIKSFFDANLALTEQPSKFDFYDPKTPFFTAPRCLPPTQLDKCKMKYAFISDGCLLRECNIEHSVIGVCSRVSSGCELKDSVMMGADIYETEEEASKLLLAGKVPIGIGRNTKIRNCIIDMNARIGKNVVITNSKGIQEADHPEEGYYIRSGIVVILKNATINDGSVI
T1 sequence (Q84PF5 1-474): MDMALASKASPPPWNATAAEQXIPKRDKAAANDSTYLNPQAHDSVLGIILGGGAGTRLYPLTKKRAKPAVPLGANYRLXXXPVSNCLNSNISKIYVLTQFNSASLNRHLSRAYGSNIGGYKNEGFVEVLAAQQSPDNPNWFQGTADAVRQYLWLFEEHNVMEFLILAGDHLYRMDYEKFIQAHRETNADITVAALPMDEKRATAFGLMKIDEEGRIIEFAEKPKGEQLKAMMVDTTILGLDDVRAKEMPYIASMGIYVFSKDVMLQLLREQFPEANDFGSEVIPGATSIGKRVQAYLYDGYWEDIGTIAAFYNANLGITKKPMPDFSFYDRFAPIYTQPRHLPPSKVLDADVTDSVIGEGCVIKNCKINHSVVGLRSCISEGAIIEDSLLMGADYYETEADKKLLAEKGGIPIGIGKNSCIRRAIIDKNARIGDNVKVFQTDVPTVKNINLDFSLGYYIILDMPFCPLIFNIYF
In words: Apparent kinetic constants with 3-PGA, 37° C., T142F. It counts as biochemical. The protocol: as §1, with “Reactions were terminated by boiling the reaction mixes for 2 minutes followed by development with 200 μl of coupling reagent (25 mM imidazole pH 7.4, 4 mM MgCl2, 1 mM EDTA, 0.2 mM NADH, 0.725 U aldolase, 0.4 U triose phosphate isomerase, 0.6 U glycerophosphate dehydrogenase, 1 mM fructose 6-phosphate and 0.8 μg purified PPi-PFK per reaction).” left out, “Reactions were linear with time and enzyme concentration.” left out
(§2) The apparent Michaelis constant and maximum velocity of each reaction was calculated from a V vs. S plots using nonlinear regression analysis and the following equation, v=VmaxS/(Km+S), where v is the measured velocity, Vmax is the maximum velocity, S is the substrate concentration. […]
(§3) Each mutant, comprising 1, 2, 3 or 4 changes, was grown in a large scale culture, expressed and purified according to standard procedures (Boehlein et al., 2005). […] Next, the activation constant, Ka, was determined for each of the mutant enzymes. […]

For test [3], the system named is maize endosperm AGPase, wild type. The following applies: cited from earlier work.
The target of test [4] is T2, maize endosperm AGPase, evolutionary mutant SH2-E (Zea mays, UniProt P55241+Q84PF5).
T2 construct: data of Boehlein et al., 2013
T2 sequence (P55241 46-516, change not shown, one chain of several): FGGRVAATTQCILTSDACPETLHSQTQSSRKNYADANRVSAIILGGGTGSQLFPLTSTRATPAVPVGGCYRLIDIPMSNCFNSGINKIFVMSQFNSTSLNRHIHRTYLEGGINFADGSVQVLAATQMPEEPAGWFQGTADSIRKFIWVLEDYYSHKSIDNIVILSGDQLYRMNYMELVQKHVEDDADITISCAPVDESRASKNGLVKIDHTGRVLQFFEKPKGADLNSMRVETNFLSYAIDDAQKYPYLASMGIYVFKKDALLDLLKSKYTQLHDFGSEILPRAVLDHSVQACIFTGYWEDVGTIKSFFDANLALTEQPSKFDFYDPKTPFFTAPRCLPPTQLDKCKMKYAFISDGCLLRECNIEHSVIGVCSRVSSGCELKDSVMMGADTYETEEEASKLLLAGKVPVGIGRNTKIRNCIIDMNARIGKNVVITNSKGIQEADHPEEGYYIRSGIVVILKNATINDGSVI
In words: Apparent kinetic constants with 3-PGA, 37° C., SH2-E. It counts as biochemical. The following applies: read-out: G-1-P Km. On the procedure:
as §1, with “Reactions were terminated by boiling the reaction mixes for 2 minutes followed by development with 200 μl of coupling reagent (25 mM imidazole pH 7.4, 4 mM MgCl2, 1 mM EDTA, 0.2 mM NADH, 0.725 U aldolase, 0.4 U triose phosphate isomerase, 0.6 U glycerophosphate dehydrogenase, 1 mM fructose 6-phosphate and 0.8 μg purified PPi-PFK per reaction).” left out, “Reactions were linear with time and enzyme concentration.” left out
as §2, §3

Test [5] relates to maize endosperm AGPase, evolutionary mutant SH2-E (SH2E). The following applies: cited from earlier work; for Ki: presence of 3-PGA, NC, read-out: Ki (Pi).
For test [6] the test system is unchanged. The following applies: cited from earlier work; for Ki: read-out: Ki (Pi).
In test [7] the test system is maize endosperm AGPase, wild type (Maize-wt). Particulars: read-out: G-1-P Km, absence of 3-PGA; cited from earlier work.
Test [8] deals with T1, maize endosperm AGPase variant T142F. Particulars: read-out: G-1-P Km, absence of 3-PGA; cited from earlier work.
In test [9] the test system is maize endosperm AGPase, wild type. Particulars: cited from earlier work. The source holds these as a separate data set.
In test [10] the target is T2, maize endosperm AGPase, evolutionary mutant SH2-E. Particulars: read-out: G-1-P Km, absence of 3-PGA; cited from earlier work.
The target in test [11] is T3, maize endosperm AGPase, large subunit variant GGR (Q96G, D161G, A443R; numbering of SEQ ID NO: 20) (Zea mays, UniProt P55241+Q84PF5, A443R/D161G/Q96G).
T3 sequence (P55241 46-516 A443R/D161G/Q96G): T1 sequence (P55241 46-516 T142F) with Q51G, F97T, D116G, A398R
T3 sequence (Q84PF5 1-474): T1 sequence (Q84PF5 1-474)
In words: Pi inhibition in the absence of 3-PGA, GGR. In kind it is biochemical. On the procedure:
Next, the kinetics of the GGR mutant were further investigated by following Pi inhibition in the presence and absence of 3-PGA. Experiments were performed by keeping both substrates constant and non-saturating at several fixed concentrations of Pi.
A similar examination of the Pi inhibition was then followed with GGR in the absence of 3-PGA.

For test [12], the target named is T3, maize endosperm AGPase, large subunit variant GGR (Q96G, D161G, A443R; numbering of SEQ ID NO: 20). In words: Pi inhibition in the presence of 3-PGA, GGR. In kind it is biochemical.
Text: Inhibition by Pi was then followed in the presence of the activator 3-PGA.
The mark [13] stands for this setting: Maize wt, presence of 3-PGA, varied substrate ATP.
The mark [14] stands for this setting: Maize wt, presence of 3-PGA, varied substrate G-1-P.
[15] abbreviates: absence of 3-PGA, varied substrate G-1-P.
The mark [16] stands for this setting: Maize wt, absence of 3-PGA, varied substrate ATP.
Setting [17] is: Maize wt, absence of 3-PGA, varied substrate G-1-P.

Numbering of substitutions follows the chain as printed. Several values for one entry are separate records, joined by “and”; a condition that tells them apart may be missing. Identical values can stand only once. Like-named read-outs stand apart in the source and are kept apart here.

In general, Km refers to the substrate concentration at which the rate is half of its maximum. What is called Ki is the dissociation constant of the complex between target and ligand, obtained from inhibition or displacement.

Turning to `O=C(O)[C@H](O)COP(=O)(O)O` [3-PGA], the “affinity for the activator, 3-PGA” value in [1] (heat stable mutant) is “increased affinity”. Moreover, the “decrease in the Ka for 3-PGA” value in test [1] (mutants carrying D161G versus wt maize) is 3-6 fold. Further, in [2], the “Ka for 3-PGA” value is “decreased Ka”.

Take `O=P(O)(O)O[C@H]1O[C@H](CO)[C@@H](O)[C@H](O)[C@H]1O` [G-1-P, glucose-1-phosphate]: the Km was 91 µM in test [3] (read-out: Km (G-1-P), Maize wt, presence of 3-PGA, G-1-P varied, Pi inhibition, P-MT); 30 µM in [4]; 63 µM in test [5] (read-out: Km (G-1-P), presence of 3-PGA, G-1-P varied, Pi inhibition, NC); 200 µM in test [6] (read-out: Km (G-1-P), absence of 3-PGA, G-1-P varied, Pi inhibition); 2800 µM in test [7]; 90 µM in test [8]. The Km in [9] (read-out: Km (G-1-P), Maize wt, absence of 3-PGA, G-1-P varied, Pi inhibition, P-MT) was 22200 µM; in test [9] (wt maize AGPase, absence of activator, Pi inhibition assay, read-out: Km for both substrates), > 20000 µM; in test [10] it was 30 µM. Moreover, the “largest variation in Km” value in [1] (mutants versus wt maize, in the presence of 3-PGA) is given as “approximately two-fold”.

For the compound `O=P(O)(O)O` [Pi, phosphate], the Ki in [3] (Maize wt, presence of 3-PGA, varied substrate ATP, P-MT, read-out: Ki (Pi)) was 0.37 mM; in test [3] (Maize wt, presence of 3-PGA, varied substrate G-1-P, P-MT, read-out: Ki (Pi)), 1 mM; in [3] (wt AGPase, in the presence of 3-PGA, read-out: Ki for Pi) it was 0.5 to 1 mM; in [11] (read-out: Ki for Pi with respect to both substrates) it was 50 to 100 mM; in test [11] (varied substrate G-1-P, read-out: Ki (Pi)), 52.7 mM; in test [5] (varied substrate ATP) it was 7.8 mM. Further, the inhibitory constant (Ki) is 6.62 mM in [5] (varied substrate G-1-P); 20.9 mM in test [6] (absence of 3-PGA, varied substrate ATP, NC); 0.055 mM in [6] (setting [15]); 10 to 20 mM in [12] (in the presence of 3-PGA, read-out: Ki for Pi); 10.7 mM in test [12] (presence of 3-PGA, varied substrate ATP, L-MT, read-out: Ki (Pi)); 20.7 mM in [12] (presence of 3-PGA, varied substrate G-1-P, NC, read-out: Ki (Pi)). The Ki in test [9] (Maize wt, absence of 3-PGA, varied substrate ATP, P-MT, read-out: Ki (Pi)) is 3.4 mM; in test [9] (Maize wt, absence of 3-PGA, varied substrate G-1-P, P-MT, read-out: Ki (Pi)), 5.1 mM; in [9] (wt maize AGPase, absence of activator, read-out: Ki for Pi) it was 3 to 5 mM. Also, the “α (Pi interaction factor)” value in [3] (setting [13]) is 4.61 +/− 0.70; in [3] (setting [14]), 0.90 +/− 0.012; in test [6] (setting [15]), 0.85 +/− 0.17; in [12] (presence of 3-PGA, varied substrate ATP) it was 2.5 and 2.5 +/− 0.66; in test [9] (setting [16]) it was 0.063 +/− 0.034; in [9] (setting [17]) it was 0.095 +/− 0.065. The “β (partiality of Pi inhibition)” value in test [3] (setting [13]) is on record as 0.83 +/− 0.037; in [3] (setting [14]), 0.52 +/− 0.023; in test [6] (setting [15]) it was 0.44 +/− 0.03; in [9] (setting [16]), 0.52 +/− 0.17; in [9] (setting [17]), 0.92 +/− 0.31. For the same compound, the “Ki for Pi relative to normal concentration of Pi in maize endosperm (~6.5 mM)” value in test [11] is listed as 10-20 times.

The values are drawn from US9650616B2, “Methods for increasing grain yield” (University of Florida Research Foundation, Inc., priority 2014, dated 2017).
